We go through 1 molecule from patent publication US10328062B2, “Biomarkers and use of MET inhibitor for treatment of cancer” (AMGEN, INC., priority 2014, dated 2019).

For one data set, the system named is NCI-H1993. The experiment in a line: 72 hour cancer cell line viability assay (CellTiter-Glo). Format: cell-based. Conditions: Homo sapiens. The procedure:
(§1) Human cancer cell lines were purchased from ATCC, JCRB, Sigma Aldrich or DSMZ. All cell lines were propagated in growth media per the suppliers' recommendation and maintained in 5% CO2 and 37° C.
(§2) Cancer cell line viability assays were carried out using the CellTiter-Glo Luminescent Cell Viability Assay from Promega (Madison, Wis.). Optimal cell seeding densities were determined using time lapse imaging to maximize signal window and ensure cells were not contact growth inhibited at the 72 hour time point. Cells were seeded in 96 well plates in complete growth media and allowed to adhere to the bottom of the plate by incubation at 37° C. and 5% CO2 overnight. […] Plates were incubated at 37° C. and 5% CO2 for 72 hours. Treated plates were then allowed to equilibrate to room temperature along with, CellTiter-Glo substrate and buffer solution prior to use in the viability assay. CellTiter-Glo substrate vials were reconstituted in 10 mL of buffer solution and added to assay plates in 100 μL/well volumes. Plates were shaken for 2 minutes at 700 rotations per minute with an orbit diameter of 3 mm followed by room temperature incubation for 10 minutes. Plates were then read using an Envision plate reader on luminescent setting.
(§3) To calculate growth inhibition effects (0-200% scale), time zero vehicle treated wells (V0), were read at the time of compound addition for each cell line.
(§4) Threshold for high vs low MET copy number was set at aCGH log 2 ratio of 2.5. Focal nature of MET copy number increase was defined qualitatively using tiled aCGH results for chromosome 7.
(§5) Percent growth inhibition is reported on a 0-200% scale where 0% is equivalent to no effect (time 72 hour control), 100% is equivalent to stasis (time 0 hour control) and 200% is equivalent to complete cell death.

The test system of another data set is MKN-45. The description is as above. Format: cell-based. The note with it: Homo sapiens. The method, then: as §1, §2, §3, §4, §5
A short description of data set [1]: Body weight and tolerability in HCC PDX models. The data set is classed as in vivo. The note with it: LI0612 and LI1078 models. The method, then: Two HCC patient-derived tumor xenograft (PDX) mouse models were established by directly inoculated subcutaneously with primary human HCC tumor tissues into female BABL/c nude mice. Briefly, each mouse (8-10 weeks old) was purchased from Shanghai Laboratory Animal Center (SLAC). All the animal experiments were performed according to the guidelines approved by the Institutional Animal Care and Use Committee (IACUC). The treatment was started when the average size reached about 180 mm^3. Mice were allocated randomly into four experiment groups (12 animals per group) according to their tumor sizes. […]. The tumor size and body weight were measured twice weekly. The length, width, and height of tumors were measured with a caliper. The tumor volume was calculated as L×W×H and expressed in mm^3. The percentage of tumor growth inhibition (% TGI=100%−(VTi−VT0)/(VCi−VC0)*100%) was calculated for evaluating anti-tumor efficacy. VTi, mean tumor size in treatment group on the Day i; VT0, mean tumor volume in treatment group on Day 0; VCi, mean tumor size in vehicle group on Day i; VC0, mean tumor size in vehicle group on Day 0.
Mice with subcutaneously established tumor tissues were randomly grouped and treated with vehicle or Compound Mat doses of 3, 10 and 30 mg/kg once daily by oral administration for 14 days. […]. […]. […]

For another data set, the system named is TPR-MET xenografts. The experiment in a line: animal or person. The method, then: Nude mice bearing established TPR-MET xenografts were treated with Compound Mat doses of 0.1, 0.5, 0.75, 1, 2, 3, or 10 mg/kg. Three hours post dose, tumors were excised and flash frozen in liquid nitrogen. Tumors were then homogenized in lysis buffer containing protease and phosphatase inhibitors. Lysates were then processed per the SDS-PAGE and Immunoblotting protocol.
Tumors were harvested 3 hours post dose and tumor lysates prepared for analysis by SDS-PAGE and immunoblot using antibodies to phospho-Gab1 and β-actin. Phospho-Gab1 levels were quantified using a chemiluminescent imaging system.

The test system of data set [2] is panel of 20 cancer cell lines. The experiment in a line: 72 hour viability assays, sensitivity status over the panel. The data set is classed as cell-based. The note with it: Homo sapiens. The method, then: as §1
as §2, with “Plates were shaken for 2 minutes at 700 rotations per minute with an orbit diameter of 3 mm followed by room temperature incubation for 10 minutes.” left out
MET copy number for individual cell lines was determined by array comparative genomic hybridization (aCGH) and reported as log 2 ratio of cell line to pooled control DNA from 40 normal donors. […]

The subject of data set [3] is MET signaling (phospho-MET, phospho-Gab1, phospho-AKT, phospho-ERK) in MKN45, SNU-620 and SNU-5. The experiment in a line: Immunoblot analysis of PI3K and MAPK signaling pathways. Format: cell-based, Human. Conditions: 100 nM, 2 hours. The method, then:
Cells were seeded in 10 cm dishes at varying densities and allowed to adhere by incubating at 37° C. and 5% CO2 overnight. […] Cells were harvested in 250 μL lysis buffer containing protease and phosphatase inhibitors. For suspension cell lines, cells were pelleted prior to lysis buffer addition. Protein concentrations for individual lysates were measured using a BCA protein assay. 25 μg of protein lysate per sample was resolved on Life Technologies (Carlsbad, Calif.) NuPAGE Bis-Tris gels per manufacturer's. Samples were transferred to nitrocellulose membranes for Western blot analysis. Membranes were blocked in 5% milk prepared in TBST for 1 hour at room temperature. Total and phospho-specific antibodies for specified endpoints were used at 1:1000 dilutions in 5% milk/TBST (total) or 5% BSA/TBST (phospho). Membranes were incubated in the presence of appropriate primary antibody overnight at 4° C. Secondary anti-species-IgG HRP conjugated antibodies were diluted 1:5000 in 5% milk/TBST and incubated in the presence of membranes for 1 hour at room temperature. Membranes were exposed to Thermo Scientific (Waltham, Mass.) Super Signal PICO West ECL detection reagent per manufacturer's recommended protocol and exposed to film to document signal.
Antibodies detecting total and phospho-MET (Y1234/1235), phospho-Gab1 (Y627), total and phospho-AKT (S473), total and phospho-ERK (T202/Y204), cleaved caspase-3, and cleaved PARP were purchased from Cell Signaling Technologies (Beverly, Mass.). The total β-actin antibody was purchased from Thermo Scientific (Waltham, Mass.). Both secondary anti-rabbit and anti-mouse IgG-HRP conjugated antibodies were purchased from Thermo Scientific (Waltham, Mass.).
Subsequent lysates were analyzed by SDS-PAGE and immunoblot using antibodies detecting total and phospho-MET (Y1234/[…]), phospho-Gab1 (Y627), total and phospho-AKT (S473), and total and phospho-ERK 1/2 (T202/Y204).
(A western blot detects proteins with antibodies after separation by electrophoresis.)

Read-outs that look alike come from different tables or passages of the source.

One may read the IC50 as the midpoint of a concentration-inhibition curve. In general, inhibition refers to how much of the control response was suppressed.

As to `COCCOc1cnc2ccn([C@H](C)c3nnc4c(F)cc(-c5cnn(C)c5)cn34)c(=O)c2c1` [Compound M, 6-{(1R)-1-[8-fluoro-6-(1-methyl-1H-pyrazol-4-yl)[1,2,4]triazolo[4,3-a]pyridin-3-yl]ethyl}-3-(2-methoxyethoxy)-1,6-naphthyridin-5(6H)-one], the IC50 in the data set with NCI-H1993 (NCI-H1993, NSCLC, MET copy number High, focal Yes, 72 hour viability) is 17 nM; in the data set on MKN-45 (MKN-45, Gastric, MET copy number High, focal Yes, 72 hour viability), 9 nM; in data set [2] (insensitive cell lines, read-out: IC50 values from the viability assay, cell lines binned as insensitive) it was above 3000 nM; in data set [2] (sensitive cell lines, read-out: IC50 values from the viability assay, cell lines binned as sensitive) it was 2 to 17 nM. Moreover, the Emax in the data set on NCI-H1993 (NCI-H1993, 72 hour, 0-200% scale, 100% = stasis, read-out: maximum effect, growth inhibition) came out at 100%; with MKN-45 (MKN-45, 72 hour, 0-200% scale, 100% = stasis, read-out: maximum effect, growth inhibition), 100%. For the same molecule, the body weight entry in data set [1] (3, 10, 30 mg/kg once daily, 14 days) was “no significant body weight changed or lost”. Also, the tolerability result in data set [1] (all dose levels) is recorded as “well tolerated”. For the same molecule, the inhibition at 1 mg/kg in the data set with TPR-MET xenografts (Mus musculus, 3 h, read-out: inhibition of phospho-Gab1) was above 90%. For the same molecule, in the data set with TPR-MET xenografts (TPR-Met xenograft model), the “average exposure shown to inhibit c-Met activity by 90%” value was 0.154 µg/mL. In addition, in data set [3], the “Phosphorylation of Gab1 (Y627)” value is “inhibited”. Further, the “Phosphorylation of MET (Y1234/1235)” value in data set [3] is given as “inhibited”. Moreover, the “phospho-AKT (S473), PI3K pathway” value in data set [3] is listed as “reduction”. Besides, the “phospho-ERK (T202/Y204), MAPK pathway” value in data set [3] is recorded as “reduction”.
